From patent US9174974B2, “Macrocyclic factor VIIa inhibitors” (BRISTOL-MYERS SQUIBB COMPANY, priority 2012, dated 2015)

How the values were obtained:
human FVIIa = human FVIIa (Homo sapiens (Human), UniProt P08709); test: FVIIa Ki (37° C.), FVIIa-Xase assay; assay type: biochemical; details: for Ki: read-out: FVIIa Ki, nM 37° C.; for Ki(HK1)/Ki(FVIIa): selectivity ratio, tissue kallikrein (HK1) vs FVIIa
tissue kallikrein (HK1) = tissue kallikrein (HK1) (Homo sapiens (Human), UniProt P06870); test: Tissue kallikrein-1 (HK1) Ki, fluorogenic substrate assay; assay type: biochemical; details: 37° C.
Sequence of tissue kallikrein (HK1) (P06870 25-262): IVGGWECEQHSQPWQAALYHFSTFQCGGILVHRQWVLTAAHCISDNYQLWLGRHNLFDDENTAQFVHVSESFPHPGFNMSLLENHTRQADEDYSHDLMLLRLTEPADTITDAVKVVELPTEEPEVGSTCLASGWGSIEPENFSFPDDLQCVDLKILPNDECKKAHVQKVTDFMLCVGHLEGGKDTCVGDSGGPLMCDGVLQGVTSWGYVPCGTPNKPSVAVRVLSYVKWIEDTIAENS

Sequence of human FVIIa (P08709 61-212): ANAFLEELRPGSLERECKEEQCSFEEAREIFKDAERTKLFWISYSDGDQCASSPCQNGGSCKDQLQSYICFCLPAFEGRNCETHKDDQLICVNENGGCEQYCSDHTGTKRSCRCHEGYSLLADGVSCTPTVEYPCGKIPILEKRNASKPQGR
Sequence of human FVIIa (P08709 213-466): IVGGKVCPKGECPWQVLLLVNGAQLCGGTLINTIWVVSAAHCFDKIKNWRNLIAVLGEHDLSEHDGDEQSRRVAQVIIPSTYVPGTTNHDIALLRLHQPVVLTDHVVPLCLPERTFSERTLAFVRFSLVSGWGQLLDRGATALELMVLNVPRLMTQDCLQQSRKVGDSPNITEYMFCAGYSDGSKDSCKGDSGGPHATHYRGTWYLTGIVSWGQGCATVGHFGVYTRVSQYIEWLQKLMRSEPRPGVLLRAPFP
Sequence of human FVIIa (P13726 33-295 partner): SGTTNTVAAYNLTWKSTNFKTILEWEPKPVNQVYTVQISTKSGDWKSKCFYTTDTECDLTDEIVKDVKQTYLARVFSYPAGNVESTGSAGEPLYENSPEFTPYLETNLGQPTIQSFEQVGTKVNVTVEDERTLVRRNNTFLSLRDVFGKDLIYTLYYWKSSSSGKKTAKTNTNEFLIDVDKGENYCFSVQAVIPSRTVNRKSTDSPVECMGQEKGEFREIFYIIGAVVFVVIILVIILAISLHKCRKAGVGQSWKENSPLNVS

SMILES	Ki (human FVIIa) [nM]	Ki(HK1)/Ki(FVIIa) (human FVIIa)	Ki (tissue kallikrein (HK1)) [µM]
Cc1cc2ccc1[C@@H](C)COC(=O)Nc1cc(F)c(OC[C@H](O)C3CC3)c(c1)CN(C)C(=O)[C@@H]2Nc1ccc2c(N)nccc2c1.O=C(O)C(F)(F)F (stereo in doubt) [Example 21, (2R,15R)-2-[(1-Aminoisoquinolin-6-yl)amino]-7-[(2S)-2-cyclopropyl-2-hydroxyethoxy]-8-fluoro-4,15,20-trimethyl-13-oxa-4,11-diazatricyclo[14.2.2.16,10]henicosa-1(18),6,8,10 (21),16,19-hexaene-3,12-dione; trifluoroacetic acid]	0.34	1618	0.55
Cc1cc2ccc1[C@@H](C)COC(=O)Nc1ccc(S(=O)(=O)C(C)(C)C)c(c1)CN(C)C(=O)[C@@H]2Nc1ccc2c(N)nccc2c1.O=C(O)C(F)(F)F (stereo in doubt) [Example 22, (15R)-2-[(1-Aminoisoquinolin-6-yl)amino]-4,15,17-trimethyl-7-(2-methylpropane-2-sulfonyl)-13-oxa-4,11-diazatricyclo[14.2.2.1^6,10]henicosa-1(18),6,8,10 (21),16,19-hexaene-3,12-dione; trifluoroacetic acid]	0.31	2516	0.78
CC(C)S(=O)(=O)c1ccc2cc1CN(C)C(=O)[C@H](Nc1cc(F)c3c(N)nccc3c1)c1ccc(cc1)CCOC(=O)N2 [Comparator 1, reference compound]	38	87	3.33
CCS(=O)(=O)c1ccc2cc1CNC(=O)[C@H](Nc1ccc3c(N)nccc3c1)c1ccc(cc1)CCOC(=O)N2 [Comparator 2, reference compound]	11	10	0.11
CCS(=O)(=O)c1ccc2cc1CNC(=O)[C@H](Nc1ccc3c(N)nccc3c1)c1cc(C)c(c(C)c1)CCOC(=O)N2 [Comparator 3, reference compound]	1.1	64	0.07
C[C@H]1COC(=O)Nc2cccc(c2)CNC(=O)C(Nc2ccc3c(N)nccc3c2)c2ccc1cc2 (stereo partly drawn) [Comparator 4, reference compound]	> 140	–	–
Cc1cc2cc(C)c1CC(O)CC(=O)Nc1ccc(S(=O)(=O)C3CC3)c(c1)CN(C)C(=O)[C@@H]2Nc1ccc2c(N)ncc(F)c2c1.O=C(O)C(F)(F)F (stereo partly drawn) [Example 2, (2R)-2-[(1-Amino-4-fluoroisoquinolin-6-yl)amino]-7-(cyclopropanesulfonyl)-14-hydroxy-4,17,20-trimethyl-4,11-diazatricyclo[14.2.2.1^6,10]henicosa-1(18),6,8,10 (21),16,19-hexaene-3,12-dione; trifluoroacetic acid]	2.3	704	1.62
CCS(=O)(=O)c1ccc2cc1CN(C)C(=O)[C@H](Nc1ccc3c(N)ncc(F)c3c1)c1ccc(c(C)c1)[C@@H](C)COC(=O)N2.O=C(O)C(F)(F)F [Example 3, (2R,15R)-2-[(1-Amino-4-fluoroisoquinolin-6-yl)amino]-7-(ethanesulfonyl)-4,15,17-trimethyl-13-oxa-4,11-diazatricyclo[14.2.2.1^6,10]henicosa-1(18),6,8,10 (21),16,19-hexaene-3,12-dione; trifluoroacetic acid]	2.3	117	0.27
CCN(Cc1nccs1)C(=O)c1ccc2cc1CN(C)C(=O)[C@H](Nc1ccc3c(N)nccc3c1)c1cc(C)c(c(C)c1)C(F)(F)COC(=O)N2.O=C(O)C(F)(F)F [Example 4, (2R)-2-[(1-Aminoisoquinolin-6-yl)amino]-N-ethyl-15,15-difluoro-4,17,20-trimethyl-3,12-dioxo-N-(1,3-thiazol-2-ylmethyl)-13-oxa-4,11-diazatricyclo[14.2.2.1^6,10]henicosa-1(18),6,8,10 (21),16,19-hexaene-7-carboxamide; trifluoroacetic acid]	–	–	0.3
Cc1cc2cc(C)c1C(F)(F)COC(=O)Nc1ccc(S(=O)(=O)C3CC3)c(c1)CN(C)C(=O)[C@@H]2Nc1ccc2c(N)nccc2c1.O=C(O)C(F)(F)F [Example 5, (2R)-2-[(1-Aminoisoquinolin-6-yl)amino]-7-(cyclopropanesulfonyl)-15,15-difluoro-4,17,20-trimethyl-13-oxa-4,11-diazatricyclo[14.2.2.1^6,10]henicosa-1(18),6,8,10 (21),16,19-hexaene-3,12-dione; trifluoroacetic acid]	2	145	0.29
COC[C@H](C)S(=O)(=O)c1ccc2cc1CN(C)C(=O)[C@H](Nc1ccc3c(N)ncc(F)c3c1)c1ccc(c(C)c1)[C@@H](C)COC(=O)N2.O=C(O)C(F)(F)F [Example 6, (2R,15R)-2-[(1-Amino-4-fluoroisoquinolin-6-yl)amino]-7-[(2S)-1-methoxypropane-2-sulfonyl]-4,15,17-trimethyl-13-oxa-4,11-diazatricyclo[14.2.2.1^6,10]henicosa-1(18),6,8,10 (21),16,19-hexaene-3,12-dione; trifluoroacetic acid]	1.8	306	0.55
Cc1cc2ccc1[C@@H](C)COC(=O)Nc1ccc(C(=O)N3CCC3)c(c1)CN(C)C(=O)[C@@H]2Nc1ccc2c(N)nccc2c1.O=C(O)C(F)(F)F [Example 7, (2R,15R)-2-[(1-Aminoisoquinolin-6-yl)amino]-7-(azetidine-1-carbonyl)-4,15,17-trimethyl-13-oxa-4,11-diazatricyclo[14.2.2.16,10]henicosa-1(18),6,8,10 (21),16,19-hexaene-3,12-dione; trifluoroacetic acid]	1.2	525	0.63
Cc1cc2ccc1[C@@H](C)COC(=O)Nc1ccc(S(=O)(=O)C(C)C)c(c1)CN(C)C(=O)[C@@H]2Nc1ccc2c(N)ncc(F)c2c1.O=C(O)C(F)(F)F [Example 8, (2R,15R)-2-[(1-Amino-4-fluoroisoquinolin-6-yl)amino]-4,15,17-trimethyl-7-(propane-2-sulfonyl)-13-oxa-4,11-diazatricyclo[14.2.2.1^6,10]henicosa-1(18),6,8,10 (21),16,19-hexaene-3,12-dione; trifluoroacetic acid]	1.2	583	0.7
Cc1cc2ccc1[C@@H](C)COC(=O)Nc1ccc([C@@H](CC(F)F)C(=O)O)c(c1)CN(C)C(=O)[C@@H]2Nc1ccc2c(N)ncc(F)c2c1.O=C(O)C(F)(F)F [Example 10, (2R)-2-[(2R,15R)-2-[(1-Amino-4-fluoroisoquinolin-6-yl)amino]-4,15,17-trimethyl-3,12-dioxo-13-oxa-4,11-diazatricyclo[14.2.2.1^6,10]henicosa-1(18),6,8,10 (21),16,19-hexaen-7-yl]-4,4-difluorobutanoic acid; trifluoroacetic acid]	0.9	356	0.32
Cc1cc2ccc1[C@@H](C)COC(=O)Nc1cc(F)c(S(=O)(=O)C3CC3)c(c1)CN(C)C(=O)[C@@H]2Nc1cc(F)c2c(N)nccc2c1.O=C(O)C(F)(F)F [Example 11, (2R,15R)-2-[(1-Amino-8-fluoroisoquinolin-6-yl)amino]-7-(cyclopropanesulfonyl)-8-fluoro-4,15,17-trimethyl-13-oxa-4,11-diazatricyclo[14.2.2.1^6,10]henicosa-1(18),6,8,10 (21),16,19-hexaene-3,12-dione; trifluoroacetic acid]	0.66	145	0.096
CC[C@@H](C(=O)O)c1ccc2cc1CN(C)C(=O)[C@H](Nc1ccc3c(N)ncc(F)c3c1)c1ccc(c(C)c1)[C@@H](C)COC(=O)N2.O=C(O)C(F)(F)F [Example 13, (2R)-2-[(2R,15R)-2-[(1-Amino-4-fluoroisoquinolin-6-yl)amino]-4,15,17-trimethyl-3,12-dioxo-13-oxa-4,11-diazatricyclo[14.2.2.1^6,10]henicosa-1(18),6,8,10 (21),16,19-hexaen-7-yl]butanoic acid; trifluoroacetic acid]	0.61	623	0.38
Cc1cc2ccc1[C@@H](C(F)F)COC(=O)Nc1ccc(S(=O)(=O)C3CC3)c(c1)CN(C)C(=O)[C@@H]2Nc1ccc2c(N)nccc2c1.O=C(O)C(F)(F)F [Example 16, (2R,15R)-2-[(1-Aminoisoquinolin-6-yl)amino]-7-(cyclopropanesulfonyl)-15-(difluoromethyl)-4,17-dimethyl-13-oxa-4,11-diazatricyclo[14.2.2.1^6,10]henicosa-1(18),6,8,10 (21),16,19-hexaene-3,12-dione; trifluoroacetic acid]	0.5	360	0.18
Cc1cc2ccc1[C@@H](C)COC(=O)Nc1cc(F)c(OC[C@H](C)O)c(c1)CN(C)C(=O)[C@@H]2Nc1ccc2c(N)nccc2c1.O=C(O)C(F)(F)F [Example 17, (2R,15R)-2-[(1-Aminoisoquinolin-6-yl)amino]-8-fluoro-7-[(2S)-2-hydroxypropoxy]-4,15,20-trimethyl-13-oxa-4,11-diazatricyclo[14.2.2.1^6,10]henicosa-1(18),6,8,10 (21),16,19-hexaene-3,12-dione; trifluoroacetic acid]	0.46	870	0.4
Cc1cc2ccc1[C@@H](CF)COC(=O)Nc1ccc(S(=O)(=O)C3CC3)c(c1)CN(C)C(=O)[C@@H]2Nc1ccc2c(N)nccc2c1.O=C(O)C(F)(F)F [Example 24, (2R,15R)-2-[(1-Aminoisoquinolin-6-yl)amino]-7-(cyclopropanesulfonyl)-15-(fluoromethyl)-4,17-dimethyl-13-oxa-4,11-diazatricyclo[14.2.2.1^6,10]henicosa-1(18),6,8,10 (21),16,19-hexaene-3,12-dione; trifluoroacetic acid]	–	–	0.2
